Columns and labels:
[1] = LNP size, PDI and zeta potential by Dynamic Light Scattering (Method A); type: physicochemical; conditions: LNP formulated with the lipid, DLS
In short: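 Dynamic light scattering gave size, polydispersity and zeta potential of Method A nanoparticles. These were made from Luc mRNA in 10 mM citrate pH 4.0 combined with ethanol lipid master mix plus ionizable lipid on a dean-type chip (3:1, TFR around 12 ml/min).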

HeLa cells = assay: Transfection efficiency with Luciferase (SecNLuc) mRNA, Nano-Glo assay (Method A); type: cell-based; conditions: Luc mRNA, 24 h, luminescence; for Transfection 10 ng mRNA: 10 ng mRNA/well; for Transfection 50 ng mRNA: 50 ng mRNA/well; for Transfection 100 ng mRNA: 100 ng mRNA/well
In short: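 Luminescence from secreted NanoLuc, read with Nano-Glo reagent, gave transfection efficiency 24 h after HeLa cells were dosed. Method A lipid nanoparticles delivered SecNLuc mRNA at 10, 50 or 100 ng per well in triplicate.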

| SMILES | PDI [1] | Size (nm) [1] [nm] | Zeta potential (mV) [1] [mV] | Transfection 10 ng mRNA (HeLa cells) | Transfection 50 ng mRNA (HeLa cells) | Transfection 100 ng mRNA (HeLa cells) |
| --- | --- | --- | --- | --- | --- | --- |
| CCCCC/C=C\C/C=C\CCCCCCCCO[Si](C)(C)OC(CCCCCCC/C=C\CCCCCCCC)OCCCN(C)C (stereo not drawn) [Example 81, (17Z,20Z)-5-((Z)-heptadec-8-en-1-yl)-N,N,7,7-tetramethyl-4,6,8-trioxa-7-silahexacosa-17,20-dien-1-amine] | 0.10 | 104 | −25.24 | 1.57E+02 | 5.31E+02 | 5.71E+02 |
| CCCCCCCC/C=C\CCCCCCCCOC(=O)C(C)(C)CC(OCCCCCCCC/C=C\CCCCCCCC)O[Si](C)(C)OCCCCCCN(CCCO)CCCO (stereo not drawn) [Example 88, (Z)-octadec-9-en-1-yl 1-hydroxy-4-(3-hydroxypropyl)-12,12,16,16-tetramethyl-14-(((Z)-octadec-9-en-1-yl)oxy)-11,13-dioxa-4-aza-12-silaheptadecan-17-oate] | 0.21 | 86.51 | −7.76 | 6.30E+03 | 9.95E+04 | 5.10E+05 |
| CCCCC/C=C\C/C=C\CCCCCCCCOC(CCCCCCC/C=C\C/C=C\CCCCC)O[Si](C)(C)OCCCCCCN1CCCCC1CO (stereo not drawn) [Example 64, (1-((20Z,23Z)-10-((8Z,11Z)-heptadeca-8,11-dien-1-yl)-8,8-dimethyl-7,9,11-trioxa-8-silanonacosa-20,23-dien-1-yl)piperidin-2-yl)methanol] | 0.098 | 293.7 | −9.226 | 3.40E+05 | 1.89E+06 | 3.78E+06 |
| CCCCCCCC/C=C\CCCCCCCC(OCC(CCCCCCCC)SCCCCCCCCCC)O[Si](C)(C)OCCCCCCN(CCO)CCO (stereo not drawn) [Example 73, (Z)-13-(heptadec-8-en-1-yl)-3-(2-hydroxyethyl)-11,11-dimethyl-16-octyl-10,12,14-trioxa-17-thia-3-aza-11-silaheptacosan-1-ol] | 0.16 | 86.3 | −17.46 | 6.90E+01 | 9.88E+02 | 4.08E+03 |
| CCCCCCCC/C=C\CCCCCCCCOC(CCCCCCC/C=C\CCCCCCCC)O[Si](C)(C)OCCCCCCN(CCO)CCO (stereo not drawn) [Example 47, (Z)-13-((Z)-heptadec-8-en-1-yl)-3-(2-hydroxyethyl)-11,11-dimethyl-10,12,14-trioxa-3-aza-11-siladotriacont-23-en-1-ol] | 0.014 | 125.0 | −8.469 | 3.37E+04 | 1.29E+06 | 7.06E+06 |
| CCCCCCCC/C=C\CCCCCCCCOC(=O)C(C)(C)CC(OCCCCCCCC/C=C\CCCCCCCC)O[Si](C)(C)OCCCCCCN(C)CCO (stereo not drawn) [Example 93, (Z)-octadec-9-en-1-yl 1-hydroxy-3,11,11,15,15-pentamethyl-13-(((Z)-octadec-9-en-1-yl)oxy)-10,12-dioxa-3-aza-11-silahexadecan-16-oate] | 0.15 | 82.7 | −14.61 | 2.73E+03 | 2.75E+04 | 1.19E+05 |
| CCCCCCCC/C=C\CCCCCCCCOC(=O)C(C)(C)CCC(OCCCCCCCC/C=C\CCCCCCCC)O[Si](C)(C)OCCCCCCN(CCO)CCO (stereo not drawn) [Example 94, (Z)-octadec-9-en-1-yl 1-hydroxy-3-(2-hydroxyethyl)-11,11,16,16-tetramethyl-13-(((Z)-octadec-9-en-1-yl)oxy)-10,12-dioxa-3-aza-11-silaheptadecan-17-oate] | 0.24 | 93.8 | −12.89 | 7.50E+02 | 8.22E+03 | 3.14E+04 |
| CCCCC/C=C\C/C=C\CCCCCCCCOC(CCCCCCC/C=C\C/C=C\CCCCC)O[Si](C)(C)OCCCCCCN1CCCCC1 (stereo not drawn) [Example 57, 1-((20Z,23Z)-10-((8Z,11Z)-heptadeca-8,11-dien-1-yl)-8,8-dimethyl-7,9,11-trioxa-8-silanonacosa-20,23-dien-1-yl)piperidine] | 0.041 | 160.3 | −11.06 | 9.82E+04 | 1.48E+06 | 5.16E+06 |
| CCCCC/C=C\C/C=C\CCCCCCCCOC(CCCCCCC/C=C\C/C=C\CCCCC)O[Si](C)(C)OCCCCCCN(CCCCO)CCCCO (stereo not drawn) [Example 62, (25Z,28Z)-15-((8Z,11Z)-heptadeca-8,11-dien-1-yl)-5-(4-hydroxybutyl)-13,13-dimethyl-12,14,16-trioxa-5-aza-13-silatetratriaconta-25,28-dien-1-ol] | 0.13 | 236.8 | −10.74 | 1.95E+05 | 8.70E+05 | 1.68E+06 |
| CCCCC/C=C\C/C=C\CCCCCCCCO[Si](C)(C)OC(CCCCCCC/C=C\C/C=C\CCCCC)OCCCCCCN(CCO)CCO (stereo not drawn) [Example 40, (23Z,26Z)-11-((8Z,11Z)-heptadeca-8,11-dien-1-yl)-3-(2-hydroxyethyl)-13,13-dimethyl-10,12,14-trioxa-3-aza-13-siladotriaconta-23,26-dien-1-ol] | 0.020 | 152.7 | −8.912 | 1.47E+05 | 2.13E+06 | 8.09E+06 |
| CCCCCCCC/C=C\CCCCCCCC(OCCCCCCCCCCCCCCC(C)C)O[Si](C)(C)OCCCCCCN(CCO)CCO (stereo not drawn) [Example 76, (Z)-13-(heptadec-8-en-1-yl)-3-(2-hydroxyethyl)-11,11,29-trimethyl-10,12,14-trioxa-3-aza-11-silatriacontan-1-ol] | 0.2 | 108.4 | −19.39 | 3.30E+03 | 6.71E+04 | 3.34E+05 |
| CCCCCCCC/C=C\CCCCCCCCOC(CCCCCCC/C=C\CCCCCCCC)O[Si](C)(C)OCCCCCCN(C)[C@H](CO)Cc1ccccc1 (stereo partly drawn) [Example 78, (2S,Z)-2-benzyl-13-((Z)-heptadec-8-en-1-yl)-3,11,11-trimethyl-10,12,14-trioxa-3-aza-11-siladotriacont-23-en-1-ol] | 0.10 | 92.14 | −19.77 | 2.45E+03 | 1.55E+04 | 3.54E+04 |
| CCCCCCCC/C=C\CCCCCCCCOC(=O)C(C)(C)CC(OCCCCCCCC/C=C\CCCCCCCC)O[Si](C)(C)OCCCCCCN(CCCCO)CCCCO (stereo not drawn) [Example 86, (Z)-octadec-9-en-1-yl 18-hydroxy-14-(4-hydroxybutyl)-2,2,6,6-tetramethyl-4-(((Z)-octadec-9-en-1-yl)oxy)-5,7-dioxa-14-aza-6-silaoctadecanoate] | 0.25 | 109.7 | −13.69 | 3.47E+04 | 4.82E+05 | 1.37E+06 |

Source: US20260109721A1, “IONIZABLE CATIONIC LIPIDS INCORPORATING SILICON: SYNTHESIS AND LNP FORMULATION” (priority 2023, published 2026)
